Experimental data published in US11999727B2 (Tango Therapeutics, Inc., priority 2020, dated 2024).

Legend:
[1] = molecular target: T1, PRMT5 (Homo sapiens, UniProt O14744); test: PRMT5 biochemical IC50 assay with no cofactor; conditions: PRMT5, no cofactor
T1 construct: purchased Viva (custom protein)
From the text: Table 1 indicates IC50 values (μM) against PRMT5 for exemplary compounds in the presence of SAM as cofactor, with no cofactor, and with MTA as cofactor, respectively (columns 4-6). […] Ki values can be calculated from the IC50 values as described in the Examples section. As detailed in the Examples section, for the assay performed in the presence of SAM, IC50=Ki×1.5 (Ki=IC50/1.5).

[2] = molecular target: T1, PRMT5; test: PRMT5 biochemical IC50 assay with SAM as cofactor; conditions: PRMT5, SAM as cofactor; read-out: SAM IC50
[3] = tested on: HAP1 MTAP-intact cell line; test: SDMA in-cell western assay, HAP1 MTAP-intact; type: cell-based; conditions: Homo sapiens, HAP1, SDMA in-cell western, HAP1 MTAP-intact; read-out: MTAP HAP1 intact IC50
How it was run: (§1)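 Compounds were tested in HAP1 cells differing only in MTAP status (endogenous expression versus null). Cellular SDMA levels were then measured by in-cell western, giving an IC50 in each background.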

[4] = molecular target: T1, PRMT5; test: PRMT5 biochemical IC50 assay with MTA as cofactor; conditions: PRMT5, MTA as cofactor; read-out: MTA IC50
[5] = tested on: HAP1 MTAP-deleted cell line; test: Viability assay, MTAP-deleted cell line; type: cell-based; conditions: Homo sapiens, read-out: HAP1 MTAP deleted viability
From the text: Table 1 additionally indicates IC50 values in a viability assay for the MTAP-deleted cell line (column 10), indicating the effect of treatment with compound on cell survival.

[6] = tested on: HAP1 MTAP-deleted cell line; test: SDMA in-cell western assay, HAP1 MTAP-deleted; type: cell-based; conditions: for IC50: Homo sapiens, HAP1, SDMA in-cell western, HAP1 MTAP-deleted; for MTAP intact/deleted ratio: SDMA in-cell western
How it was run: as §1

[7] = HAP1, viability assay, MTAP-deleted cell line
[8] = read-out: HAP1 MTAP deleted IC50
[9] = IC50 ratio HAP1 MTAP-intact vs HAP1 MTAP-deleted
[10] = read-out: No Cofactor/ rel IC50
[11] = HAP1, viability, HAP1 MTAP-deleted cell line
[12] = read-out: HAP 1 MTAP deleted IC50
[13] = IC50 ratio HAP1 MTAP-intact / HAP1 MTAP-deleted

T1 sequence (O14744 whole entry): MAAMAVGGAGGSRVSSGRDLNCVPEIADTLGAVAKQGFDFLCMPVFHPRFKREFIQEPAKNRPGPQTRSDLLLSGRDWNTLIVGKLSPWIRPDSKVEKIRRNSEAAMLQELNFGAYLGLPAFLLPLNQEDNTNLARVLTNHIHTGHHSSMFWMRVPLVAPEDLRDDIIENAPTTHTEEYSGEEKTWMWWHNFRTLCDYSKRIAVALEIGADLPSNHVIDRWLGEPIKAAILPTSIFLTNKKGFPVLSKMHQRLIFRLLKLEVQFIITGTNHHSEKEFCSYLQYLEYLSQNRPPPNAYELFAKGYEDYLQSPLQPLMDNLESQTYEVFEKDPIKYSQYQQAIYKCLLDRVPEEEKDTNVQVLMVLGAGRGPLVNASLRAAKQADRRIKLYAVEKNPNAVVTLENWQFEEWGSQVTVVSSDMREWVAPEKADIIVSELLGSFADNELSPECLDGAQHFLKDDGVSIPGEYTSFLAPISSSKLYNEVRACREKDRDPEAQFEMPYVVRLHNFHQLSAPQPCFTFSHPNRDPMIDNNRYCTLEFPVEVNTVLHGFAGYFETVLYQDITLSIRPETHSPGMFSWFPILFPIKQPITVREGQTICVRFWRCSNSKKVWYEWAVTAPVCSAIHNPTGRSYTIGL
T1 sequence (Q9BQA1 whole entry partner): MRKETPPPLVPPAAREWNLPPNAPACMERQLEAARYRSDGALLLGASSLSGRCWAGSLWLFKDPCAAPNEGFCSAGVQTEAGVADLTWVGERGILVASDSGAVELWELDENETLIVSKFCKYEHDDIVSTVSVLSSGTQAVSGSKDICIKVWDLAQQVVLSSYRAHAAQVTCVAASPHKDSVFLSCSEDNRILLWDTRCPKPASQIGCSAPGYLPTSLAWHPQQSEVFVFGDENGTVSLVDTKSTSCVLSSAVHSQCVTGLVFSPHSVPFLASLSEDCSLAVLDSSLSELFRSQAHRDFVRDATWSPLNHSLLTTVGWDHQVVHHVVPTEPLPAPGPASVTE

SMILES | IC50 ([1]; read-out: No Cofactor/rel IC50) | IC50 [2] | IC50 [3] | IC50 [4] | IC50 [5, 7] | IC50 [6, 8] | MTAP intact/deleted ratio [6, 9] | IC50 [1, 10] | IC50 [5, 11] | IC50 [6, 12] | MTAP intact/deleted ratio [6, 13]
Cc1cc(NC(=O)C(=O)N2C[C@H](C)[C@@H](CC(C)C)C[C@H]2c2ccc3scnc3c2)cnc1N (single isomer, unassigned) [Compound 1210] | 50 to 500 nM | 50 to 500 nM | > 1000 nM | < 50 nM | 1000 to 10000 nM | 100 to 1000 nM |  |  |  |  | 
COCc1nc2cc([C@H]3CC[C@H](C)CN3C(=O)C(=O)Nc3cnc(N)c(C)c3)ccc2s1 (single isomer, unassigned) [Compound 1211] | 50 to 500 nM | 50 to 500 nM | < 100 nM | < 50 nM | < 1000 nM | < 100 nM | A (an IC50 ratio greater than or equal to 10 fold) |  |  |  | 
Cc1cc(NC(=O)C(=O)N2C[C@@H](C)[C@@H](OC(F)(F)F)C[C@@H]2c2ccc(F)cc2)cnc1N (single isomer, unassigned) [Compound 1213] | < 50 nM | 50 to 500 nM | 100 to 1000 nM | < 50 nM | < 1000 nM | < 100 nM | A (an IC50 ratio greater than or equal to 10 fold) |  |  |  | 
C[C@@H]1CC[C@@H](c2ccc3sc(CCN(C)C)nc3c2)N(C(=O)C(=O)Nc2cnc(N)c(C3CC3)c2)C1 (single isomer, unassigned) [Compound 1218] | < 50 nM | < 50 nM | < 100 nM | < 50 nM | < 1000 nM | < 100 nM | A (an IC50 ratio greater than or equal to 10 fold) |  |  |  | 
Cc1cc(NC(=O)C(=O)N2C[C@@H](C)CC[C@@H]2c2cccc(N3CCN(C)CC3)c2)cnc1N (single isomer, unassigned) [Compound 1229] | < 50 nM | < 50 nM | < 100 nM | < 50 nM | < 1000 nM | < 100 nM | B (an IC50 ratio greater than or equal to 3 fold but lower than 10 fold) |  |  |  | 
CCc1cc(NC(=O)C(=O)N2C[C@H](C)CC[C@H]2c2ccc(N3CCN(C(C)C)CC3)cc2)cnc1N (single isomer, unassigned) [Compound 1234] | > 500 nM | > 500 nM | > 1000 nM | > 500 nM | 1000 to 10000 nM | > 1000 nM |  |  |  |  | 
CO[C@@H]1C[C@@H](c2ccc3scnc3c2)N(C(=O)C(=O)Nc2cnc(N)c(C3CC3)c2)C[C@@H]1C (single isomer, unassigned) [Compound 1241] |  | > 500 nM | > 1000 nM | > 500 nM |  |  |  | > 500 nM | 1000 to 10000 nM | > 1000 nM | 
CCc1cc(NC(=O)C(=O)N2C[C@@H](C)CC[C@@H]2c2ccc(N3CCC4(CCCN(C)C4)CC3)cc2)cnc1N (single isomer, unassigned) [Compound 1243] |  | 50 to 500 nM | 100 to 1000 nM | < 50 nM |  |  |  | < 50 nM | < 1000 nM | < 100 nM | A (an IC50 ratio greater than or equal to 10 fold)
C[C@@H]1CC[C@@H](c2ccc3c(cnn3CCN(C)C)c2)N(C(=O)C(=O)Nc2cnc(N)c(C3CC3)c2)C1 (single isomer, unassigned) [Compound 1249] |  | 50 to 500 nM | 100 to 1000 nM | < 50 nM |  |  |  | < 50 nM | < 1000 nM | < 100 nM | A (an IC50 ratio greater than or equal to 10 fold)
C[C@H]1CC[C@H](c2ccc3[nH]ncc3c2)N(C(=O)C(=O)Nc2cnc(N)c(C3CC3)c2)C1 (single isomer, unassigned) [Compound 1251] |  | < 50 nM | < 100 nM | < 50 nM |  |  |  | < 50 nM | < 1000 nM | < 100 nM | A (an IC50 ratio greater than or equal to 10 fold)
Cc1cc(NC(=O)C(=O)N2C[C@@H](C)CC[C@@H]2c2cccc(C3CCN(C)CC3)c2)cnc1N (single isomer, unassigned) [Compound 1253] |  | < 50 nM | 100 to 1000 nM | < 50 nM |  |  |  | < 50 nM | < 1000 nM | < 100 nM | A (an IC50 ratio greater than or equal to 10 fold)
C[C@@H]1CC[C@@H](c2ccc3sc(CCN(C)C)nc3c2)N(C(=O)C(=O)Nc2cncc(C(N)=O)c2)C1 (single isomer, unassigned) [Compound 1254] |  | < 50 nM | 100 to 1000 nM | < 50 nM |  |  |  | < 50 nM | < 1000 nM | < 100 nM | A (an IC50 ratio greater than or equal to 10 fold)
C[C@H]1CC[C@H](c2ccc3sc(C4CCN(C)CC4)nc3c2)N(C(=O)C(=O)Nc2cncc(C(N)=O)c2)C1 (single isomer, unassigned) [Compound 1255] |  | 50 to 500 nM | < 100 nM | < 50 nM |  |  |  | < 50 nM | < 1000 nM | < 100 nM | A (an IC50 ratio greater than or equal to 10 fold)
C[C@H]1CCC(c2ccc3sc(C4CCOCC4)nc3c2)N(C(=O)C(=O)Nc2cnc(N)c(C3CC3)c2)C1 (single isomer, unassigned) [Compound 1258] |  | 50 to 500 nM | 100 to 1000 nM | < 50 nM |  |  |  | < 50 nM | < 1000 nM | < 100 nM | A (an IC50 ratio greater than or equal to 10 fold)
CCc1cc(NC(=O)C(=O)N2C[C@@H](C)CC[C@@H]2c2ccc(N3CCN(C)[C@H](C)C3)nc2)cnc1N (single isomer, unassigned) [Compound 1263] |  | 50 to 500 nM | 100 to 1000 nM | < 50 nM |  |  |  | > 500 nM | < 1000 nM | < 100 nM | A (an IC50 ratio greater than or equal to 10 fold)
CCc1cc(NC(=O)C(=O)N2C[C@H](C)CC[C@H]2c2ccc(N3CCC4(CCCN(C)C4)CC3)cc2)cnc1N (single isomer, unassigned) [Compound 1269] |  | > 500 nM | > 1000 nM | 50 to 500 nM |  |  |  | > 500 nM | 1000 to 10000 nM | 100 to 1000 nM | 
CCc1cc(NC(=O)C(=O)N2C[C@@H](C)CC[C@@H]2c2ccc3nn([C@@H]4CCCN(C)C4)cc3c2)cnc1N (single isomer, unassigned) [Compound 1270] |  | 50 to 500 nM | 100 to 1000 nM | < 50 nM |  |  |  | 50 to 500 nM | < 1000 nM | < 100 nM | A (an IC50 ratio greater than or equal to 10 fold)
CCc1cc(NC(=O)C(=O)N2C[C@@H](C)CC[C@@H]2c2ccc3nn([C@H]4CCCN(C)C4)cc3c2)cnc1N (single isomer, unassigned) [Compound 1271] |  | 50 to 500 nM | < 100 nM | < 50 nM |  |  |  | < 50 nM | < 1000 nM | < 100 nM | B (an IC50 ratio greater than or equal to 3 fold but lower than 10 fold)
CCc1cc(NC(=O)C(=O)N2C[C@@H](C)CC[C@@H]2c2cccc(C[C@H]3CCCCN3C)c2)cnc1N (single isomer, unassigned) [Compound 1273] |  | 50 to 500 nM | 100 to 1000 nM | < 50 nM |  |  |  | < 50 nM | < 1000 nM | < 100 nM | A (an IC50 ratio greater than or equal to 10 fold)
Cc1cc(NC(=O)C(=O)N2C[C@@H](C)[C@H](CC(C)C)C[C@@H]2c2ccc3scnc3c2)cnc1N (single isomer, unassigned) [Compound 1284] |  | > 500 nM | > 1000 nM | > 500 nM |  |  |  | > 500 nM | > 10000 nM | > 1000 nM | 
CCc1cc(NC(=O)C(=O)N2C[C@@H](C)[C@@H](OC)C[C@@H]2c2ccc3scnc3c2)cnc1N (single isomer, unassigned) [Compound 1286] |  | 50 to 500 nM | 100 to 1000 nM | < 50 nM |  |  |  | < 50 nM | < 1000 nM | < 100 nM | A (an IC50 ratio greater than or equal to 10 fold)
CCc1cc(NC(=O)C(=O)N2C[C@@H](C)CC[C@@H]2c2ccc(N3CCN(C)[C@@H](C)C3)nc2)cnc1N (single isomer, unassigned) [Compound 1289] |  | 50 to 500 nM | 100 to 1000 nM | < 50 nM |  |  |  | < 50 nM | < 1000 nM | < 100 nM | A (an IC50 ratio greater than or equal to 10 fold)
